{"source": "patent US20210253651A1", "about": "“METHOD FOR PRODUCING ORGANIC COMPOUND-ENCAPSULATING FERRITIN” (Ajinomoto Co., Inc., priority 2018, published 2021)", "key": {"FTH ferritin [1]": {"biological_target": "T1, FTH ferritin (Homo sapiens, UniProt P02794)", "T1 construct": "made in house; host or cells: Escherichia coli BL21 (DE3), plasmid pET20-FTH", "T1 sequence (P02794 whole entry)": "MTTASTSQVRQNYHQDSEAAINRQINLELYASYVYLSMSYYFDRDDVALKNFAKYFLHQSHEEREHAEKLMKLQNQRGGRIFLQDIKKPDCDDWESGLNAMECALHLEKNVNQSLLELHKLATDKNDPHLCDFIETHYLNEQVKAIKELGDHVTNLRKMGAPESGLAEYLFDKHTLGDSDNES", "test": "estimation of state of DOX in FTH ferritin internal cavity", "details": "165 molecules of DOX per molecule of FTH ferritin, cavity volume 0.18 zL", "from_the_text": "Ferritin has a cage shape having a diameter of 12 nm, and the diameter of an internal cavity thereof is 7 nm. Ideally, the volume of the internal cavity is 0.18 zL (zL: Zepto little, 10 to the negative power of 21). […] In view of this, it is necessary to disassemble ferritin once to allow DOX to be released in advance for quantification of DOX incorporated in ferritin by means of spectroscopic evaluation."}, "FTH ferritin [2]": {"biological_target": "T1, FTH ferritin", "test": "disassembly-reassembly process incorporation of DOX into FTH ferritin", "type": "physicochemical", "details": "standing 15 minutes, DOX 0.2 mg/L", "method": "Then, 10 μL of 1M Tris-HCl buffer (pH 9.0) was added for neutralization, and the resulting solution was left to stand for 5 to 120 minutes at room temperature. After the standing, 0.5 mL of water was added to the resulting solution. After the resulting solution was centrifuged (at 15,000 rpm for one minute), the supernatant was injected into the desalting column PD-10 (Sephadex G-25 filled product, GE Healthcare Inc.) equilibrated with 10 mM Tris-HCl buffer (pH 8) to separate the protein from a reagent that was not encapsulated. Whole amount (3.5 mL) of the resulting solution was concentrated to 0.1 mL by centrifugal ultrafiltration using Vivaspin 20-100K (GE Healthcare Inc.), and then the absorbances at 280 nm and 480 nm were measured using spectrophotometer (DU-800, Beckman Coulter Inc.)."}, "FTH ferritin [3]": {"biological_target": "T1, FTH ferritin", "test": "one-step process incorporation of small molecule agents into FTH ferritin", "type": "physicochemical", "details": "pH of buffer giving the largest amount of incorporation within ferritin", "method": "All of the reactions were performed in 0.1 mL volume. […] The absorbances were measured using spectrophotometer (DU-800, Beckman Coulter Inc.) for these solutions, and the concentration of contained protein was determined using the protein assay CBB solution (Nacalai Tesque, Inc.) as well as bovine albumin as a standard. Absorbances at 280 nm and 480 nm were measured for Rhodamine B and Congo Red. […] Then, after the absorbances were calibrated based on the absorbances that were derived from the proteins and presumed by the amount of contained protein quantified using the protein assay CBB solution, the concentrations of small molecule agents were determined based on the calibration curves obtained by the absorbances of the molecules. […] As a result, the one-step process enabled incorporating also the small molecule agents with different physical properties such as molecular weight and pKa simply and easily."}, "FTH ferritin [4]": {"biological_target": "T1, FTH ferritin", "test": "ratio of amounts incorporated, one-step vs disassembly-reassembly process", "type": "physicochemical", "method": "As a control, some of small molecule agents listed in Table 1 was incorporated into ferritin also at the disassembly-reassembly process. […] Then, 10 μL of 1M Tris-HCl buffer (pH 9.0) was added for neutralization, and the resulting solution was left to stand for 15 minutes at room temperature. After the standing, 0.5 mL of water was added. After the resulting solution was centrifuged (at 15,000 rpm for one minute), the supernatant was injected into the desalting column PD-10 (Sephadex G-25 filled product, GE Healthcare Inc.) equilibrated with 10 mM Tris-HCl buffer (pH 8) to separate the protein from a reagent that was not encapsulated. […]\nThe absorbances were measured using spectrophotometer (DU-800, Beckman Coulter Inc.) for these solutions, and the concentration of contained protein was determined using the protein assay CBB solution (Nacalai Tesque, Inc.) as well as bovine albumin as a standard. Absorbances at 280 nm and 480 nm were measured for Rhodamine B and Congo Red. […] Then, after the absorbances were calibrated based on the absorbances that were derived from the proteins and presumed by the amount of contained protein quantified using the protein assay CBB solution, the concentrations of small molecule agents were determined based on the calibration curves obtained by the absorbances of the molecules. […]"}}, "note": "Where a name gives a salt, the structure may show the parent alone."}
{"molecule": "COc1cccc2c1C(=O)c1c(O)c3c(c(O)c1C2=O)C[C@@](O)(C(=O)CO)C[C@@H]3OC1CC(N)C(O)C(C)O1", "note": "(stereo partly shown) [DOX, Doxorubicin hydrochloride]", "values": [{"measurement": "concentration of DOX in the internal cavity of ferritin", "setting": "FTH ferritin [1]", "value": 890, "unit": "g/L"}, {"measurement": "highest incorporation efficiency of the reagent", "setting": "FTH ferritin [2]", "value": "2 % (wt)"}, {"measurement": "Optimal pH in reaction", "setting": "FTH ferritin [3]", "value": 9}, {"measurement": "ratio of amount incorporated at the one-step process to that at the disassembly-reassembly process", "setting": "FTH ferritin [4]", "value": 30, "unit": "fold"}]}
